Laboratory results as given in patent US10575485B2, “Wheat plants having increased resistance to imidazolinone herbicides” (The Department of Agriculture, Western Australia, priority 2002, dated 2020).

Experiments:
[1] = system: Triticum aestivum wheat lines K-42 and Br-8; experiment: Seed soak and spray selection of mutagenised wheat lines for imazamox tolerance; type: in vivo; conditions: M3 seed soaked in 50 ppm solution for 24 hours, subsequent plants sprayed with 50 ppm
Protocol: 840 grams of seed of the Triticum aestivuni wheat varieties Krichauff and Brookton were soaked in a sodium azide solution (0.065 g/L) to produce M1 seed. M1 plants were allowed to self pollinate to produce M2 seed. M2 seed were soaked in a 50 ppm solution of the imidazolinone herbicide imazamox for 24 hours prior to sowing in the field. Resultant plants that appeared to have normal growth eight to nine weeks after sowing were transplanted from the field to a greenhouse for M3 seed production. To confirm herbicide tolerance, M3 seed were soaked in a 50 ppm solution of imazamox for 24 hours prior to sowing, and subsequent plants were sprayed with a solution of 50 ppm of imazamox.

[2] = system: AHAS extracted from wild type and tolerant wheat plants; experiment: In vitro AHAS enzyme activity in the presence of imidazolinone herbicide; type: biochemical, Triticum aestivum
Source text: Because the tolerance in K-42 and Br-8 is due to a mutation in the AHAS enzyme rendering it resistant to inhibition by imidazolinone herbicides, the in vitro activity of AHAS extracted from wild type plants (not having the mutation for tolerance) can be compared to the in vitro activity of AHAS extracted from tolerant plants in the presence of varying concentrations of an imidazolinone herbicide. K-42 was compared to the wild type variety Krichauff, and Br-8 was compared to the wild type variety Brookton. […] As explained in Example 2, the in vitro AHAS enzyme activity can be compared among lines with and without a mutation conferring resistance to inhibition by imidazolinone herbicides. […]

[3] = system: wheat plants (K-42, Br-8, K-42/Br-8, wild type Krichauff and Brookton); experiment: Greenhouse herbicide tolerance, injury scored on a 0-9 scale; type: in vivo, Triticum aestivum; conditions: 40 and 120 g/ha
Protocol: Tolerance of K-42 and Br-8 to the imidazolinone herbicide imazamox was evaluated at 40 and 120 g/ha in the greenhouse. Wild type Krichauff and Brookton were used as herbicide susceptible controls. 24 plants were treated at each rate at the 2-3 leaf stage. Injury was scored on a 0-9 scale, 0 representing no injury and 9 representing plant death. FIG. 4 summarizes the data collected 14 and 21 days after treatment. In Example 1, reference was made to crosses between K-42, containing a mutation in Als3 conferring imidazolinone herbicide tolerance, and FS-2 and Br-8, each containing a mutation in Als1 also conferring imidazolinone herbicide tolerance. Krichauff and Brookton are the wheat varieties from which K-42 and Br-8, respectively, were derived. Lines derived from the K-42/FS-2 cross were tolerant to rates of up to six times that required for economic weed control in the field. One line derived from the K-42/Br-8 cross was evaluated in the greenhouse for tolerance to 40 and 120 grams/hectare of irnazamox. Injury was scored on a 0-9 scale, 0 representing no injury and 9 representing plant death.

| SMILES | Herbicide tolerance of M2-derived lines K-42 and Br-8 [1] | Residual uninhibited AHAS in Br-8 and K-42 ([2]; 100 μM imazamox) | Uninhibited AHAS enzyme activity with increasing herbicide concentration (FIG. 5) ([2]; wild type Krichauff and Brookton versus K-42 and Br-8) | Resistance and injury of K-42 and BR-8 relative to wild type counterparts (FIG. 4) ([3]; 2-3 leaf stage, 14 and 21 days after treatment) | Tolerance and injury of the line derived from the K-42/Br-8 cross (FIG. 6) ([3]; injury 0-9 scale) | Percent uninhibited AHAS activity in the Br-8/K-42 combination (FIG. 7) ([2]; four highest herbicide concentrations, compared with Br-8, K-42 and wild type) |
| --- | --- | --- | --- | --- | --- | --- |
| COCc1cnc(C2=NC(C)(C(C)C)C(=O)N2)c(C(=O)O)c1 (stereo not drawn) [imazamox] | identified as tolerant to imazamox | sufficient to provide a herbicide tolerant response | decreased faster in wild type lines than in either Br-8 or K-42 | increased resistance and decreased injury | greatly enhanced tolerance at both 40 and 120 g/ha with very little injury |  |
| CCc1cnc(C2=NC(C)(C(C)C)C(=O)N2)c(C(=O)O)c1 (stereo not drawn) [imazethapyr] |  |  |  |  |  | increase in percent uninhibited AHAS activity |
